Assay results: ChEMBL document CHEMBL5715935 (Int J Cancer, 2002)
The source made the active and inactive calls. No cut-off for these calls is given here.

How the values were obtained:
LoVo [1] = assay: Induction of cell death in human LoVo cells assessed as increase in total cell numbers at 20 uM incubated upto 24 hrs by TUNEL staining based flow cytometry analysis; format: functional
MES-SA/Dx5 [2] = assay: Antitumor activity against human MES-SA/Dx5 cells xenografted CD1 nude mouse assessed as time for tumor growth delay at 500 mg/kg, po administered 3 times per day at 8 hrs intervals for 4 days; format: functional; details: time 4 day
ACHN = assay: Cytotoxicity against p53 wild-type human ACHN cells assessed as inhibition of cell proliferation incubated for 72 hrs by MTT assay; format: functional, cell-based
LoVo [3] = assay: Antitumor activity against human Lovo cells xenografted CD1 nude mouse assessed as time for tumor growth delay at 100 mg/kg, ip administered 3 times per day at 8 hrs intervals for 5 days; format: functional; details: time 5 day
LoVo [4] = assay: Induction of cell death in human LoVo cells assessed as G1 phase of the cell cycle at 20 uM incubated for 24 hrs by TUNEL staining based flow cytometry analysis; format: functional
LoVo [5] = assay: Antitumor activity against human Lovo cells xenografted CD1 nude mouse assessed as low tumor volume at 100 mg/kg, ip administered 3 times per day at 8 hrs intervals for 24 days; format: functional, organism-based; details: time 24.0 day
A549 = assay: Cytotoxicity against p53 wild-type human A549 cells assessed as inhibition of cell proliferation incubated for 72 hrs by MTT assay; format: functional, cell-based; details: A549, 72 h
LoVo [6] = assay: Antitumor activity against human Lovo cells xenografted CD1 nude mouse assessed as low tumor volume at 100 mg/kg, ip administered 3 times per day at 8 hrs intervals for 32 days; format: functional, organism-based; details: time 32.0 day
NCI-H69 = assay: Cytotoxicity against p53 mutant human NCI-H69 cells assessed as inhibition of cell proliferation incubated for 72 hrs by MTT assay; format: functional, cell-based; details: NCI-H69, 72 h
MES-SA/Dx5 [7] = assay: Antitumor activity against human MES-SA/Dx5 cells xenografted CD1 nude mouse assessed as time for tumor growth delay at 200 mg/kg, po administered 3 times per day at 8 hrs intervals for 10 days; format: functional; details: time 10 day
A498 = assay: Cytotoxicity against p53 wild-type human A498 cells assessed as inhibition of cell proliferation incubated for 72 hrs by MTT assay; format: functional, cell-based; details: A498, 72 h
MES-SA = assay: Cytotoxicity against human MES-SA cells assessed as inhibition of cell proliferation incubated for 72 hrs by MTT assay; format: functional, cell-based
HT-1376 = assay: Cytotoxicity against p53 mutant human HT-1376 cells assessed as inhibition of cell proliferation incubated for 72 hrs by MTT assay; format: functional, cell-based; details: HT-1376, 72 h
LoVo [8] = assay: Induction of cell death in human LoVo cells assessed as decrease in total cell numbers at 20 uM incubated for 48 hrs by TUNEL staining based flow cytometry analysis; format: functional
NCI-H460 = assay: Cytotoxicity against p53 wild-type human NCI-H460 cells assessed as inhibition of cell proliferation incubated for 72 hrs by MTT assay; format: functional, cell-based; details: NCI-H460, 72 h
MES-SA/Dx5 [9] = assay: Antitumor activity against human MES-SA/Dx5 cells xenografted CD1 nude mouse assessed as reduction in tumor volume at 200 mg/kg, po administered 3 times per day at 8 hrs intervals and measured upto 16 days; format: functional, organism-based; details: time <= 16.0 day
DU-145 = assay: Cytotoxicity against p53 mutant human DU-145 cells assessed as inhibition of cell proliferation incubated for 72 hrs by MTT assay; format: functional, cell-based; details: DU-145, 72 h
LoVo [10] = assay: Antitumor activity against human Lovo cells xenografted CD1 nude mouse assessed as low tumor volume at 100 mg/kg, ip administered 3 times per day at 8 hrs intervals for 19 days; format: functional, organism-based; details: time 19.0 day
LoVo [11] = assay: Antitumor activity against human Lovo cells xenografted CD1 nude mouse assessed as low tumor volume at 100 mg/kg, ip administered 3 times per day at 8 hrs intervals for 16 days; format: functional, organism-based; details: time 16.0 day
LoVo [12] = assay: Induction of cell death in human LoVo cells assessed as increase in the number of cells with a sub-G1 DNA content at 20 uM incubated for 24 hrs by PI staining based flow cytometry analysis; format: functional
[13] = biological target: Protein kinase C (PKC) (Homo sapiens) (UniProt O94806+P41743+P17252+P05129+Q05655+P05771+Q05513+Q02156+P24723+Q15139+Q04759); assay: Inhibition of human PKC at 20 uM; format: protein assay
HT-29 = assay: Cytotoxicity against p53 mutant human HT-29 cells assessed as inhibition of cell proliferation incubated for 72 hrs by MTT assay; format: functional, cell-based; details: HT-29, 72 h
LoVo [14] = assay: Antitumor activity against human Lovo cells xenografted CD1 nude mouse assessed as T/C ratio at 100 mg/kg, ip administered 3 times per day at 8 hrs intervals for 5 days relative to control; format: functional; details: time 5 day
MES-SA/Dx5 [15] = assay: Antitumor activity against human MES-SA/Dx5 cells xenografted CD1 nude mouse assessed as tumor volume at 500 mg/kg, po administered 3 times per day at 8 hrs intervals and measured on 11 day; format: functional, organism-based
[16] = biological target: cAMP-dependent protein kinase (PKA) (Homo sapiens) (UniProt P22694+P17612+P22612); assay: Inhibition of human PKA at 20 uM; format: protein assay
HCT-116 = assay: cells; details: Homo sapiens, HCT-116, 72 h
LoVo [17] = assay: Induction of cell death in human LoVo cells assessed as total cell numbers at 20 uM incubated after 8 hrs by TUNEL staining based flow cytometry analysis; format: functional
MIA PaCa-2 [18] = assay: Cytotoxicity against p53 mutant human MIA PaCa-2 cells assessed as inhibition of cell proliferation incubated for 72 hrs by MTT assay; format: functional, cell-based; details: MIA PaCa-2, 72 h
LoVo [19] = assay: Induction of cell death in human LoVo cells assessed as sub-G1 phase of the cell cycle at 20 uM incubated for 24 hrs by TUNEL staining based flow cytometry analysis; format: functional
LoVo [20] = assay: Antitumor activity against human Lovo cells xenografted CD1 nude mouse assessed as relative tumor volume at 100 mg/kg, ip administered 3 times per day at 8 hrs intervals for 5 days; format: functional; details: time 5 day
ChaGo-K-1 = assay: Cytotoxicity against human ChaGo-K-1 cells assessed as inhibition of cell proliferation incubated for 72 hrs by MTT assay; format: functional, cell-based; details: ChaGo-K-1, 72 h
HCT-15 = assay: Cytotoxicity against p53 mutant human HCT-15 cells assessed as inhibition of cell proliferation incubated for 72 hrs by MTT assay; format: functional, cell-based; details: HCT-15, 72 h
MES-SA/Dx5 [21] = assay: Antitumor activity against human MES-SA/Dx5 cells xenografted CD1 nude mouse assessed as T/C ratio at 500 mg/kg, po administered 3 times per day at 8 hrs intervals and measured at 11 day relative to control; format: functional
MES-SA/Dx5 [22] = assay: Antitumor activity against human MES-SA/Dx5 cells xenografted CD1 nude mouse assessed as tumor volume at 500 mg/kg, po administered 3 times per day at 8 hrs intervals and measured on 7 day; format: functional, organism-based
MIA PaCa-2 [23] = assay: Cytotoxicity against p53 wild-type human MIA PaCa-2 cells assessed as inhibition of cell proliferation incubated for 72 hrs by MTT assay; format: functional, cell-based; details: MIA PaCa-2, 72 h
[24] = Cytotoxicity against human IMR-90 cells assessed as inhibition of cell proliferation incubated for 72 hrs by MTT assay; format: toxicity, cell-based
LoVo [25] = assay: Cytotoxicity against p53 wild-type human LoVo cells assessed as inhibition of cell proliferation incubated for 72 hrs by MTT assay; format: functional, cell-based
LoVo [26] = assay: Induction of cell death in human LoVo cells assessed as S phase of the cell cycle at 20 uM incubated for 24 hrs by TUNEL staining based flow cytometry analysis; format: functional
[27] = Cytotoxicity against human HS27 cells assessed as inhibition of cell proliferation incubated for 72 hrs by MTT assay; format: toxicity, cell-based
LoVo [28] = assay: Induction of cell death in human LoVo cells assessed as accumulation of cells in the cell cycle at 20 uM incubated for 24 hrs by PI staining based flow cytometry analysis; format: functional
MIA PaCa-2 [29] = assay: Cytotoxicity against human MIA PaCa-2 cells assessed as inhibition of cell proliferation incubated for 72 hrs by MTT assay; format: functional, cell-based; details: MIA PaCa-2, 72 h
LoVo [30] = assay: Antitumor activity against human Lovo cells xenografted CD1 nude mouse assessed as reduction in tumor volume at 100 mg/kg, ip administered 3 times per day at 8 hrs intervals for 5 days relative to control; format: functional; set-up: scale not given: the % may be the effect or the level left; details: time 5 day
HepG2 = assay: Cytotoxicity against p53 wild-type human HepG2 cells assessed as inhibition of cell proliferation incubated for 72 hrs by MTT assay; format: functional, cell-based; details: HepG2, 72 h
[31] = biological target: Mitogen-activated protein kinase 14 (Homo sapiens) (UniProt Q16539); assay: Inhibition of human SAPK2A using myelin as substrate at 20 uM in presence of gamma-32P-ATP by scintillation counter analysis
LoVo [32] = assay: Induction of cell death in human LoVo cells assessed as G2/M phase of the cell cycle at 20 uM incubated for 24 hrs by TUNEL staining based flow cytometry analysis; format: functional
MES-SA/Dx5 [33] = assay: Cytotoxicity against human MES-SA/Dx5 cells assessed as inhibition of cell proliferation incubated for 72 hrs by MTT assay; format: functional, cell-based; details: MES-SA/Dx5, 72 h
MES-SA/Dx5 [34] = assay: Antitumor activity against human MES-SA/Dx5 cells xenografted CD1 nude mouse assessed as T/C ratio at 200 mg/kg, po administered 3 times per day at 8 hrs intervals for 10 days and measured at day 11 relative to control; format: functional; details: time 11 day
MES-SA/Dx5 [35] = assay: Antitumor activity against human MES-SA/Dx5 cells xenografted CD1 nude mouse assessed as tumor volume at 500 mg/kg, po administered 3 times per day at 8 hrs intervals and measured on 4 day; format: functional, organism-based

Mitogen-activated protein kinase 14 (Homo sapiens), sequence (Q16539 whole entry): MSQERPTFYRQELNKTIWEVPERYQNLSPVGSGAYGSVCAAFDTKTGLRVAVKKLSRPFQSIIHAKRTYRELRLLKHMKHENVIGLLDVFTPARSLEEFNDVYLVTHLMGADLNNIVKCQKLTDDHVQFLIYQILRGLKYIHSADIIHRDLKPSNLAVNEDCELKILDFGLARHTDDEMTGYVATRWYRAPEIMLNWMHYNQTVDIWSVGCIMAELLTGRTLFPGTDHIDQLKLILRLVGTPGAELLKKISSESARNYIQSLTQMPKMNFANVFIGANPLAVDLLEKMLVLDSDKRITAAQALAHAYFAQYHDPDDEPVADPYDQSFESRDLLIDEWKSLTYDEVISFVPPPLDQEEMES

CC[C@H](CO)Nc1nc(NCc2ccccc2)c2ncn(C(C)C)c2n1 [SELICICLIB]
Activity (LoVo [1]): Active | Time (MES-SA/Dx5 [2]): 1.7 days | IC50 (ACHN): 11.9 µM | Time (LoVo [3]): 1.4 days | Activity (LoVo [4]): Active | Activity (LoVo [5]): Active | IC50 (A549): 15.9 µM | Activity (LoVo [6]): Active | IC50 (NCI-H69): 26 µM | Time (MES-SA/Dx5 [7]): 1.3 days | IC50 (A498): 13.2 µM | IC50 (MES-SA): 11.9 µM | IC50 (HT-1376): 18.4 µM | Activity (LoVo [8]): Active | IC50 (NCI-H460): 13.1 µM | Activity (MES-SA/Dx5 [9]): inactive | IC50 (DU-145): 18.8 µM | Activity (LoVo [10]): Active | Activity (LoVo [11]): Active | Activity (LoVo [12]): Active | inhibition [13]: inactive | IC50 (HT-29): 14.6 µM | T/C (LoVo [14]): 58.3% | Activity (MES-SA/Dx5 [15]): Active | inhibition [16]: inactive | IC50 (HCT-116): 10.7 µM | Activity (LoVo [17]): Active | IC50 (MIA PaCa-2 [18]): 13.9 µM | Activity (LoVo [19]): Active | Activity (LoVo [20]): 4.8 | IC50 (ChaGo-K-1): 30.2 µM | IC50 (HCT-15): 18.3 µM | T/C (MES-SA/Dx5 [21]): 47.3% | Activity (MES-SA/Dx5 [22]): Active | IC50 (MIA PaCa-2 [23]): 12 µM | IC50 at 72 h [24]: > 100 µM | IC50 (LoVo [25]): 9.3 µM | Activity (LoVo [26]): Active | IC50 at 72 h [27]: 22.2 µM | Activity (LoVo [28]): inactive | IC50 (MIA PaCa-2 [29]): 15.2 µM | Activity (LoVo [30]): 44.8% | IC50 (HepG2): 11.3 µM | inhibition [31]: inactive | Activity (LoVo [32]): Active | IC50 (MES-SA/Dx5 [33]): 7.9 µM | Activity (MES-SA/Dx5 [34]): 85.7% | Activity (MES-SA/Dx5 [35]): Active
